Measured values taken from the NIST ThermoML archive (doi:10.1016/j.fluid.2018.10.024).

What was measured:
[1] = xn = mol fraction of the nth substance listed; settings: 101 kPa, Liquid; for mass density: Vibrating tube method; for viscosity: Capillary tube (Ostwald / Ubbelohde) method
[2] = refractive index (Na D-line) (dimensionless); xn = mol fraction of the nth substance listed; settings: 101 kPa, Liquid, Standard Abbe refractometry

ClC(Cl)Cl [trichloromethane] + CC(C)=O
Settings | mass density, [1] [kg/m3] | refractive index, [2] | viscosity, [1] [mPa·s]
298.15 K, x2 = 0 | – | 1.4422 | –
298.15 K, x2 = 0.0997 | – | 1.4342 | –
298.15 K, x2 = 0.1996 | – | 1.4262 | –
298.15 K, x2 = 0.2993 | – | 1.4192 | –
298.15 K, x2 = 0.3999 | – | 1.4112 | –
298.15 K, x2 = 0.4979 | – | 1.4029 | –
298.15 K, x2 = 0.599 | – | 1.3941 | –
298.15 K, x2 = 0.6993 | – | 1.3851 | –
298.15 K, x2 = 0.8008 | – | 1.377 | –
298.15 K, x2 = 0.9006 | – | 1.3676 | –
303.15 K, x2 = 0 | – | 1.4397 | –
303.15 K, x2 = 0.0997 | – | 1.4309 | –
303.15 K, x2 = 0.1996 | – | 1.4252 | –
303.15 K, x2 = 0.2993 | – | 1.418 | –
303.15 K, x2 = 0.3999 | – | 1.4105 | –
303.15 K, x2 = 0.4979 | – | 1.4019 | –
303.15 K, x2 = 0.599 | – | 1.3924 | –
303.15 K, x2 = 0.6993 | – | 1.3841 | –
303.15 K, x2 = 0.8008 | – | 1.3744 | –
303.15 K, x2 = 0.9006 | – | 1.3656 | –
308.15 K, x2 = 0 | – | 1.4356 | –
308.15 K, x2 = 0.0997 | – | 1.4281 | –
308.15 K, x2 = 0.1996 | – | 1.4215 | –
308.15 K, x2 = 0.2993 | – | 1.4141 | –
308.15 K, x2 = 0.3999 | – | 1.4055 | –
308.15 K, x2 = 0.4979 | – | 1.3968 | –
308.15 K, x2 = 0.599 | – | 1.3875 | –
308.15 K, x2 = 0.6993 | – | 1.3791 | –
308.15 K, x2 = 0.8008 | – | 1.3702 | –
308.15 K, x2 = 0.9006 | – | 1.3601 | –
313.15 K, x2 = 0 | – | 1.4338 | –
313.15 K, x2 = 0.0997 | – | 1.4276 | –
313.15 K, x2 = 0.1996 | – | 1.4202 | –
313.15 K, x2 = 0.2993 | – | 1.4128 | –
313.15 K, x2 = 0.3999 | – | 1.4048 | –
313.15 K, x2 = 0.4979 | 1135.08 | 1.3965 | –
313.15 K, x2 = 0.599 | 1064.85 | 1.3873 | –
313.15 K, x2 = 0.6993 | 993.86 | 1.3787 | –
313.15 K, x2 = 0.8008 | 920.68 | 1.3682 | –
313.15 K, x2 = 0.9006 | 846.27 | 1.3599 | –
318.15 K, x2 = 0 | 1440.03 | 1.4297 | 0.4849
318.15 K, x2 = 0.0997 | 1383.86 | 1.4244 | 0.4834
318.15 K, x2 = 0.1996 | 1322.43 | 1.4175 | 0.4798
318.15 K, x2 = 0.2993 | 1258.8 | 1.4094 | 0.4684
318.15 K, x2 = 0.3999 | 1192.83 | 1.4008 | 0.4483
318.15 K, x2 = 0.4979 | 1126.82 | 1.3929 | 0.4207
318.15 K, x2 = 0.599 | 1057.03 | 1.3839 | 0.389
318.15 K, x2 = 0.6993 | 986.42 | 1.3754 | 0.3583
318.15 K, x2 = 0.8008 | 913.61 | 1.365 | 0.3261
318.15 K, x2 = 0.9006 | 839.75 | 1.3548 | 0.2862
